How the values were obtained:
[1] = test system: SARS-CoV-2 (USA-WA1/2020); assay type: cell-based; conditions: Vero-E6 cells, 400 PFU/well, viral titer from plaque assay at 24 h post-infection
SARS-CoV-2 spike protein = SARS-CoV-2 spike protein (Severe acute respiratory syndrome coronavirus 2, UniProt P0DTC2); conditions: cited from earlier work
[2] = human, in vivo; cited from earlier work

Row | Substance | IC50, SARS-CoV-2 infection [1] [µg/mL] | binding affinity (SARS-CoV-2 spike protein) | probability of survival [2] | risk of significant bleeding [2] | serum IL-6 levels [2]
1 | Heparin sodium salt | 0.05 | high-picomolar affinity | increased the probability of survival | 10-15% | –
2 | low-molecular-weight heparin | – | – | – | – | lower serum IL-6 levels

From patent US20220401468A1 (priority 2021, published 2022)
